Measured values as given in patent US20240041042A1, “1-(PYRIDYL)-5-AZINYLPYRAZOLE DERIVATIVES, AND THEIR USE FOR CONTROL OF UNDESIRED PLANT GROWTH” (Bayer Aktiengesellschaft, priority 2020, published 2024).

Experiments:
Format in all cases: in vivo
[1] = system: Amaranthus retroflexus (AMARE); assay: Pre-emergence herbicidal action against AMARE; settings: visual scoring after about 3 weeks vs untreated controls
In short: (§1)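 Pre-emergence soil-surface spray, WP/EC formulation, 0.5% additive, 600 l/ha water, rates of 320 g/ha or lower. Greenhouse, ~3 wk. Visual score, % of untreated control (100% = plants dead, 0% = like control).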

[2] = system: Echinochloa crus-galli (ECHCG); assay: Pre-emergence herbicidal action against ECHCG; settings: dosage 320 g/ha
In short: as §1

[3] = system: Matricaria inodora (MATIN); assay: Pre-emergence herbicidal action against MATIN
In short: as §1

[4] = system: Pharbitis purpurea (PHBPU); assay: Pre-emergence herbicidal action against PHBPU
In short: as §1

[5] = system: Polygonum convolvulus (POLCO); assay: Pre-emergence herbicidal action against POLCO; settings: dosage 320 g/ha
In short: as §1

[6] = system: Verconica persica (VERPE); assay: Pre-emergence herbicidal action against VERPE; settings: dosage 320 g/ha
In short: as §1

[7] = system: Viola tricolor (VIOTR); assay: Pre-emergence herbicidal action against VIOTR
In short: as §1

[8] = system: Triticum aestivum (TRZAS); settings: pre-emergence, 80 g/ha, crop plant compatibility, in comparison to untreated controls
In short: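 Crop injury rated visually in percent against untreated plants roughly 3 weeks after treatment (0% no effect, 100% plants dead). Compounds, as WP or EC with 0.5% additive in 600 l/ha water, were applied to the covering soil right after sowing; greenhouse growth. Suffixes a, b, c denote different dosages.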

[9] = system: Pharbitis purpurea (PHBPU); assay: Post-emergence herbicidal action against PHBPU; settings: dosage 320 g/ha
In short: (§2)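 Doses of 320 g/ha or lower, suffixes a, b and c marking different dosages, were applied post-emergence at the one-leaf stage in 600 l/ha water with 0.5% additive. Damage was assessed visually after about 3 weeks in the greenhouse.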

[10] = system: Setaria viridis (SETVI); assay: Post-emergence herbicidal action against SETVI
In short: as §2

[11] = system: Verconica persica (VERPE); assay: Post-emergence herbicidal action against VERPE
In short: as §2

[12] = system: Oryza sativa (ORYSA); settings: crop plant compatibility, 80 g/ha, effect in comparison to untreated controls
In short: (§3)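 Test crops were treated 2 to 3 weeks after sowing, once they reached one leaf, by spraying compound in water with 0.5% additive at 600 l/ha. Visual scoring compared them with untreated controls roughly 3 weeks on, and appendices a, b and c denote different doses.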

[13] = system: Triticum aestivum (TRZAS); settings: crop plant compatibility, 80 g/ha, effect vs untreated controls
In short: as §3

[14] = system: Lolium rigidum (LOLRI); assay: Pre-emergence herbicidal action against LOLRI; settings: dosage 320 g/ha
In short: as §1

[15] = system: Setaria viridis (SETVI); assay: Pre-emergence herbicidal action against SETVI; settings: dosage 320 g/ha
In short: as §1

[16] = system: Abutilon theophrasti (ABUTH); assay: Post-emergence herbicidal action against ABUTH; settings: visual rating about 3 weeks after treatment vs untreated controls (100% = plants have died, 0% = like control plants)
In short: as §2

[17] = system: Amaranthus retroflexus (AMARE); assay: Post-emergence herbicidal action against AMARE
In short: as §2

[18] = system: Avena fatua (AVEFA); assay: Post-emergence herbicidal action against AVEFA; settings: 320 g/ha, visual rating about 3 weeks after treatment
In short: as §2

[19] = system: Echinochloa crus-galli (ECHCG); assay: Post-emergence herbicidal action against ECHCG
In short: as §2

[20] = system: Lolium rigidum (LOLRI); assay: Post-emergence herbicidal action against LOLRI; settings: dosage 320 g/ha
In short: as §2

[21] = system: Matricaria inodora (MATIN); assay: Post-emergence herbicidal action against MATIN; settings: dosage 320 g/ha
In short: as §2

[22] = system: Polygonum convolvulus (POLCO); assay: Post-emergence herbicidal action against POLCO
In short: as §2

[23] = system: Viola tricolor (VIOTR); assay: Post-emergence herbicidal action against VIOTR
In short: as §2

`COC(=O)CCOC(=O)COc1nn(-c2ncccc2C(F)(F)F)c(-c2cncc(F)c2)c1Br` [Example I-160] was tested, and the “Pre-emergence action against AMARE in %” value ([1]; 320 g/ha) was 80%, the “Pre-emergence action against ECHCG in %” value [2] was 90% and the “Pre-emergence action against MATIN in %” value ([3]; dosage 320 g/ha) was 80%. The “Pre-emergence action against PHBPU in %” value ([4]; dosage 80 g/ha) was 80%, the “Pre-emergence action against PHBPU in %” value ([4]; dosage 320 g/ha) was 90% and the “Pre-emergence action against POLCO in %” value [5] was 90%. For the same compound, the “Pre-emergence action against VERPE in %” value [6] was 90%, the “Pre-emergence action against VIOTR in %” value ([7]; 320 g/ha, Viola tricolor) was 100% and the “Pre-emergence action against VIOTR in %” value ([7]; dosage 80 g/ha) was 90%. The “Pre-emergence action against TRZAS in %” value [8] was 20%, the “Post-emergence action against PHBPU in %” value [9] was 90% and the “Post-emergence action against SETVI in %” value ([10]; dosage 320 g/ha) was 80%. For the same compound, the “Post-emergence action against VERPE in %” value ([11]; 320 g/ha, VERPE) was 90%, the “Post-emergence action against VERPE in %” value ([11]; dosage 80 g/ha) was 80% and the “Post-emergence action against ORYSA in %” value [12] was 0%. For the same compound, the “Post-emergence action against TRZAS in %” value [13] was 20%.

With `O=C(O)CSc1nn(-c2ccccn2)c(-c2cncc(F)c2)c1Cl` [Example I-217] the “Pre-emergence action against AMARE in %” value ([1]; 80 g/ha) was 80%, the “Pre-emergence action against AMARE in %” value ([1]; 320 g/ha) was 100% and the “Pre-emergence action against ECHCG in %” value [2] was 90%. For the same compound, the “Pre-emergence action against LOLRI in %” value [14] was 100%, the “Pre-emergence action against MATIN in %” value ([3]; dosage 80 g/ha) was 80% and the “Pre-emergence action against MATIN in %” value ([3]; dosage 320 g/ha) was 90%. For the same compound, the “Pre-emergence action against PHBPU in %” value ([4]; dosage 320 g/ha) was 90%, the “Pre-emergence action against POLCO in %” value [5] was 80% and the “Pre-emergence action against SETVI in %” value [15] was 90%. The “Pre-emergence action against VIOTR in %” value ([7]; 320 g/ha, Viola tricolor) was 90%, the “Pre-emergence action against TRZAS in %” value [8] was 0% and the “Post-emergence action against ABUTH in %” value ([16]; 80 g/ha) was 80%. The “Post-emergence action against ABUTH in %” value ([16]; 320 g/ha) was 90%, the “Post-emergence action against AMARE in %” value ([17]; 80 g/ha, visual rating about 3 weeks after treatment vs untreated controls (100% = plants have died, 0% = like control plants)) was 90% and the “Post-emergence action against AMARE in %” value ([17]; 320 g/ha, visual rating about 3 weeks after treatment) was 90%. For the same compound, the “Post-emergence action against AVEFA in %” value [18] was 90%, the “Post-emergence action against ECHCG in %” value ([19]; dosage 80 g/ha) was 90% and the “Post-emergence action against ECHCG in %” value ([19]; dosage 320 g/ha) was 90%. For the same compound, the “Post-emergence action against LOLRI in %” value [20] was 80%, the “Post-emergence action against MATIN in %” value [21] was 80% and the “Post-emergence action against POLCO in %” value ([22]; dosage 80 g/ha) was 80%. The “Post-emergence action against POLCO in %” value ([22]; dosage 320 g/ha) was 80%, the “Post-emergence action against SETVI in %” value ([10]; dosage 80 g/ha) was 80% and the “Post-emergence action against SETVI in %” value ([10]; dosage 320 g/ha) was 90%. The “Post-emergence action against VIOTR in %” value ([23]; 80 g/ha) was 80%, the “Post-emergence action against VIOTR in %” value ([23]; 320 g/ha) was 90% and the “Post-emergence action against ORYSA in %” value [12] was 0%.
